In PubChem BioAssay AID651630 (Sanford-Burnham Center for Chemical Genomics, 2012):
Activity calls are given as the source filed them.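 How the source made its calls: active means lipid-stain IC50 at or below a set limit, with nuclear-stain toxicity IC50 at least five times higher; inactive means the rest.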

Assays:
DAPI = assay: TAG lipid buildup inhibition with viability readout – cell-based, panel, Nile Red and DAPI fluorescence, H9c2, dose response (AID 651630); details: H9c2 cells, DAPI nuclear fluorescence (cytotoxicity counter-readout), oleic acid;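 further: cells exposed to compound overnight before fixation and staining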
TAG = assay: as above; details: H9c2 cells, Nile Red TAG fluorescence, oleic acid

Row | Structure (SMILES) | IC50 cytotoxicity (DAPI nuclear signal decrease) (DAPI; mean of runs) | IC50 cytotoxicity (DAPI nuclear signal decrease) (DAPI; run 1) | IC50 cytotoxicity (DAPI nuclear signal decrease) (DAPI; run 2) | IC50 (TAG; mean of runs) | IC50 (TAG; run 1) | IC50 (TAG; run 2)
1 | CC(C)C[C@@H](CN1CCCC1CN1C(=S)NC[C@@H]1Cc1ccc(O)cc1)N1C[C@H](Cc2ccccc2)N(CC2CCCCC2)C1=S (stereo partly specified) | 21.8 µM (inactive) | 21.7 µM | 21.8 µM | > 25 µM (inactive) | > 25 µM | > 25 µM
2 | Cc1ccc2[nH]c(-c3ccccc3)cc(=O)c2c1 | > 25 µM (inactive) | > 25 µM | > 25 µM | > 25 µM (inactive) | > 25 µM | > 25 µM
3 | COc1cc(C#Cc2c(-c3cncn3C)n(C)c3ccc(-c4ccc5cc[nH]c5c4)cc23)cc(OC)c1 | > 25 µM (inactive) | > 25 µM | > 25 µM | 11.7 µM | 12.1 µM | 11.3 µM
4 | Nc1c(C(=O)NCc2ccccc2)sc2nc(N3CCOCC3)c3c(c12)CCCC3 | > 25 µM (inactive) | > 25 µM | > 25 µM | > 25 µM (inactive) | > 25 µM | > 25 µM
5 | COc1ccc2sc(-c3ccc(N(C)C)cc3)c(C#CCO)c2c1 | > 25 µM (inactive) | > 25 µM | > 25 µM | 6.43 µM | 6.72 µM | 6.13 µM
6 | CC(C)C[C@H]1C(=O)N2CCC[C@H]2[C@]2(O)O[C@](NC(=O)C3C=C4c5cccc6[nH]c(Br)c(c56)C[C@H]4N(C)C3)(C(C)C)C(=O)N12 (stereo partly specified) | > 25 µM (inactive) | > 25 µM | > 25 µM | 6.4 µM | 5.42 µM | 7.37 µM
7 | Cc1ccc2oc(NC3=NC4(CCCC4)C4=C(CCCC4=O)N3)nc2c1 | > 25 µM (inactive) | > 25 µM | > 25 µM | 7.66 µM | 8.73 µM | 6.6 µM
8 | O=C(c1cc(-c2ccncc2)nc2c(Cl)cccc12)N1CCN(c2ccccc2F)CC1 | > 25 µM (inactive) | > 25 µM | > 25 µM | 5.67 µM | 6.89 µM | 4.44 µM
9 | CCOc1ccc(CCNC(=O)CCc2nc(-c3ccc(C)cc3)no2)cc1OCC | > 25 µM (inactive) | > 25 µM | > 25 µM | > 25 µM (inactive) | > 25 µM | > 25 µM
10 | COCCn1cnc2c(c1=O)c1nc3ccccc3nc1n2/N=C/c1ccc(OC)c(OC)c1 |  | 23.4 µM | > 25 µM | 5.19 µM | 3.71 µM | 6.68 µM
11 | CC(=O)O[C@H]1C[C@@]2(C)[C@@H](C[C@@H](O)[C@H]3[C@@]4(C)CC[C@@H](O)[C@@H](C)[C@@H]4CC[C@@]32C)/C1=C(\CCC=C(C)C)C(=O)O | > 25 µM (inactive) | > 25 µM | > 25 µM | 18.5 µM (inactive) | 15 µM | 22 µM
12 | CC(=O)c1cccc(-c2ccnc3c2CC(C(=O)NCc2ccco2)O3)c1 (stereo unspecified) | > 25 µM (inactive) | > 25 µM | > 25 µM | > 25 µM (inactive) | > 25 µM | > 25 µM
13 | CCCCC(=NCCc1c(C)[nH]c2ccc(OC)cc12)C1=C(O)CC(c2ccccc2)CC1=O (stereo unspecified) | > 25 µM (inactive) | > 25 µM | > 25 µM |  | 16.1 µM | > 25 µM
14 | COc1cc2c(c(OC)c1OC)-c1ccc(SC)c(=O)cc1C(NC=O)CC2 (stereo unspecified) | > 25 µM (inactive) | > 25 µM | > 25 µM | > 25 µM (inactive) | > 25 µM | > 25 µM
15 | Cc1nn(-c2cccc(Cl)c2)c2nc(-c3ccncc3)cc(C(=O)N3CCOCC3)c12 | > 25 µM (inactive) | > 25 µM | > 25 µM | > 25 µM (inactive) | > 25 µM | > 25 µM
16 | COc1ccc(-c2cnnc(N/N=C/c3ccc(-c4ccc([N+](=O)[O-])cc4)o3)n2)cc1 | > 25 µM (inactive) | > 25 µM | > 25 µM | 11 µM | 11.6 µM | 10.4 µM
17 | COc1ccc(C(=O)Nc2sc3c(c2C(=O)NCc2ccco2)CCCC3)cc1OC | > 25 µM (inactive) | > 25 µM | > 25 µM | > 25 µM (inactive) | > 25 µM | > 25 µM
18 | Cc1cc(C)c(NC(=O)CSc2nc3ccc(NC(=O)CSc4nnnn4Cc4ccccc4)cc3s2)c(C)c1 | > 25 µM (inactive) | > 25 µM | > 25 µM | > 25 µM (inactive) | > 25 µM | > 25 µM
19 | O=[N+]([O-])c1cccc(S(=O)(=O)N2CN(c3ccc(Br)cc3)c3nc4ccccc4nc32)c1 | > 25 µM (inactive) | > 25 µM | > 25 µM | 8.37 µM | 8.4 µM | 8.34 µM
20 | C[C@]12c3[nH]c4ccccc4c3CCN1C(=O)C(CC(=O)NCC13CC4CC(CC(C4)C1)C3)C[C@@H]2C(=O)N1CCCCC1 (stereo partly specified) | > 25 µM (inactive) | > 25 µM | > 25 µM | 14.6 µM | 14.8 µM | 14.4 µM
21 | COc1ccc2nc3cc([N+](=O)[O-])ccc3c(NNc3ccc([N+](=O)[O-])cc3)c2c1 | > 25 µM (inactive) | > 25 µM | > 25 µM | 5.93 µM | 10.4 µM | 1.44 µM
22 | CCOc1ccccc1-c1nc(-c2ccc(NC(=O)Cc3ccccc3OC)cc2)no1 | > 25 µM (inactive) | > 25 µM | > 25 µM | > 25 µM (inactive) | > 25 µM | > 25 µM
23 | CCN1CCN(Cc2ccc(NC(=O)c3ccc(C)c(NC(=O)C(=O)c4c[nH]c5ccccc45)c3)cc2C(F)(F)F)CC1 | 23.8 µM (inactive) | 24.4 µM | 23.1 µM | 4.98 µM | 6.17 µM | 3.8 µM
